Test results as given in patent US6743446B2, “Methods for stabilizing biologically active agents encapsulated in biodegradable controlled-release polymers” (The Ohio State University Research Foundation, priority 1999, dated 2004).
Structures can show the parent of a compound that is named as a salt.

Legend:
Type in all cases: physicochemical
[1] = pH measurement of saturated basic salts in water; conditions: excess basic salt suspended in water, 37° C., 7 days
Method: The suspension was then incubated at 37° C. for 7 days. The pH of the supernatant was determined with a Corning 430 pH meter (Corning Inc., NY).

[2] = pH of saturated basic salt suspension after addition of 1 N HCl; conditions: acid added to the saturated suspension with excess salt, 37° C., 3 days
Source text: The difference of the neutralization effect from the salts is also reflected in the different water contents of their PLGA devices.

[3] = VCR and VBL stability and release in PLGA microspheres by HPLC
Method: All other reagents and solvents were of analytical grade or purer and purchased from commercial suppliers. Microspheres Preparation Microspheres were prepared by a standard oil-in-oil emulsion-solvent extraction method (17). […] The resulting solution or suspension was added drop-wise to 25 ml of oil (95% cottonseed oil and 5% Span 85 emulsifier) stirred at 500 rpm and room temperature. After 2.5 h of microsphere hardening. 40 ml of petroleum ether (bp: 50 to 100° C.) were added to the emulsion to extract CAN. The emulsion was stirred for additional 15 min, the particles were collected by filtration, and washed 3 times with petroleum ether. The hardened microspheres were flash-frozen with liquid nitrogen and lyophilized with a Labconco Freezone 6 system for 1 day.
The HPLC system consisted of the following: a 510 pump, a 717 Plus autosampler, and a 486 UV detector (waters, Milford, Mass.). […] The mobile phase was composed of aqueous solution of sodium phosphate (10 mM) and methanol 40:60 (v/v) (pH 7.0). For UV detection, the wavelength was set to 298 nm.
Drug release from microspheres was carried out in PBS (127 mM NaCl, 3 mM KCl, 8 mM Na2HPO4, 1 mM KH2PO4, pH 7.4) containing Tween 80 (0.02% w/w/) (PBST) at 37° C. under perfect sink conditions. […] Microspheres were weighed and dissolved in a 50% (v/v) ACN water solution. The precipitated polymer and salts were spun down by brief centrifugation. An aliquot of the supernatant containing drug was removed and analyzed by HPLC.

In the case of O=P([O-])([O-])[O-].O=P([O-])([O-])[O-].[Ca+2].[Ca+2].[Ca+2] [Ca3(PO4)2], the “pH of saturated solution” value [1] is reported as 7.77 and the “pH after addition of 100 μl of 1 N HCl” value [2] is reported as 3.71.

In the case of [Ca+2].[OH-].[OH-] [Ca(OH)2], the “pH of saturated solution” value [1] is reported as 12.4 and the “pH after addition of 100 μl of 1 N HCl” value [2] is reported as 12.20.

With O=C([O-])[O-].[Ca+2] [CaCO3] the “pH of saturated solution” value [1] was 9.26 and the “pH after addition of 100 μl of 1 N HCl” value [2] was 6.07.

In the case of CC[C@]1(O)C[C@@H]2CN(CCc3c([nH]c4ccccc34)[C@@](C(=O)OC)(c3cc4c(cc3OC)N(C)[C@H]3[C@@](O)(C(=O)OC)[C@H](OC(C)=O)[C@]5(CC)C=CCN6CC[C@]43[C@@H]65)C2)C1 [VBL, vinblastine sulfate], the “stability of encapsulated drug” value ([3]; PLGA (50% D,L lactide content) microspheres) is reported as “highly stabilized”.

In the case of O=P([O-])([O-])[O-].O=P([O-])([O-])[O-].[Zn+2].[Zn+2].[Zn+2] [Zn3(PO4)2], the “pH of saturated solution” value [1] is reported as 6.82 and the “pH after addition of 100 μl of 1 N HCl” value [2] is reported as 1.53.

In the case of [OH-].[OH-].[Zn+2] [Zn(OH)2], the “pH of saturated solution” value [1] is reported as 8.85 and the “pH after addition of 100 μl of 1 N HCl” value [2] is reported as 5.86.

For O=C([O-])[O-].[Zn+2] [ZnCO3], the “drug degraded to the basic product during microsphere preparation” value ([3]; VCR PLGA microspheres with co-encapsulated base) was 3%, the “pH of saturated solution” value [1] was 7.34 and the “pH after addition of 100 μl of 1 N HCl” value [2] was 5.36.
